In turn, `CC1CCN(C2CCN(S(=O)(=O)c3ccccc3)CC2)CC1` [compound 5, 4-methyl-1′-(phenylsulfonyl)-1,4′-bipiperidine] registered a melting point of 154 to 156 °C.

In the case of `CC1CCN(C2CCN(S(=O)(=O)c3ccc([N+](=O)[O-])cc3)CC2)CC1` [compound 7, 4-Methyl-1′-((4-nitrophenyl)sulfonyl)-1,4′-bipiperidine], the melting point is 165 to 168 °C.

Regarding `CC1CCN(C2CCN(S(=O)(=O)c3ccc(C#N)cc3)CC2)CC1` [compound 9, 4-((4-Methyl-[1,4′-bipiperidin]-1′-yl)sulfonyl)benzonitrile], the melting point was in the range of 184 to 186 °C.

`Cc1ccc(S(=O)(=O)N2CCC(N3CCC(C)CC3)CC2)cc1` [compound 11, 4-Methyl-1′-tosyl-1,4′-bipiperidine] gave a melting point of 139 to 142 °C.

For `CCc1ccc(S(=O)(=O)N2CCC(N3CCC(C)CC3)CC2)cc1` [compound 12, 1′-((4-Ethylphenyl)sulfonyl)-4-methyl-1,4′-bipiperidine], the melting point was in the range of 108 to 110 °C.

For the compound `CC1CCN(C2CCN(S(=O)(=O)c3ccc(C(C)C)cc3)CC2)CC1` [compound 13, 1′-((4-Isopropylphenyl)sulfonyl)-4-methyl-1,4′-bipiperidine], the melting point fell in the range of 144 to 147 °C.

Turning to `CC1CCN(C2CCN(S(=O)(=O)c3ccc(C(C)(C)C)cc3)CC2)CC1` [compound 14, 1′-((4-(Tert-butyl)phenyl)sulfonyl)-4-methyl-1,4′-bipiperidine], the melting point lay within 173 to 176 °C.

In turn, `CC1CCN(C2CCN(S(=O)(=O)c3ccc(C(F)(F)F)cc3)CC2)CC1` [compound 15, 4-Methyl-1′-((4-(trifluoromethyl)phenyl)sulfonyl)-1,4′-bipiperidine] showed a melting point of 175 to 178 °C.

Turning to `CC1CCN(C2CCN(S(=O)(=O)c3ccc(Br)cc3)CC2)CC1` [compound 17, 1′-((4-Bromophenyl)sulfonyl)-4-methyl-1,4′-bipiperidine], the melting point fell in the range of 165 to 168 °C.

`CCCOc1ccc(S(=O)(=O)N2CCC(N3CCC(C)CC3)CC2)cc1` [compound 18, 4-Methyl-1′-((4-propoxyphenyl)sulfonyl)-1,4′-bipiperidine] displayed a melting point of 118 to 121 °C.

For the compound `CCCCOc1ccc(S(=O)(=O)N2CCC(N3CCC(C)CC3)CC2)cc1` [compound 19, 1′-((4-Butoxyphenyl)sulfonyl)-4-methyl-1,4′-bipiperidine], the melting point is 137 to 139 °C.

For `CC1CCN(C2CCN(S(=O)(=O)c3ccc(OCc4ccccc4)cc3)CC2)CC1` [compound 20, 1′-((4-(Benzyloxy)phenyl)sulfonyl)-4-methyl-1,4′-bipiperidine], the melting point is 157 to 159 °C.

The compound `CC1CCN(C2CCN(S(=O)(=O)c3ccc(OC(F)(F)F)cc3)CC2)CC1` [compound 21, 4-Methyl-1′-((4-(trifluoromethoxy)phenyl)sulfonyl)-1,4′-bipiperidine] had a melting point of 168 to 170 °C.

For the compound `COc1cccc(S(=O)(=O)N2CCC(N3CCC(C)CC3)CC2)c1` [compound 23, 1′-((3-Methoxyphenyl)sulfonyl)-4-methyl-1,4′-bipiperidine], the melting point lay in the range of 81 to 83 °C.

Regarding `Cc1cccc(S(=O)(=O)N2CCC(N3CCC(C)CC3)CC2)c1` [compound 26, 4-Methyl-1′-(m-tolylsulfonyl)-1,4′-bipiperidine], the melting point was in the range of 90 to 93 °C.

Turning to `CC1CCN(C2CCN(S(=O)(=O)c3cccc(C(F)(F)F)c3)CC2)CC1` [compound 27, 4-Methyl-1′-((3-(trifluoromethyl)phenyl)sulfonyl)-1,4′-bipiperidine], the melting point was in the range of 123 to 125 °C.

In turn, `CC1CCN(C2CCN(S(=O)(=O)c3cccc(Cl)c3)CC2)CC1` [compound 28, 1′-((3-Chlorophenyl)sulfonyl)-4-methyl-1,4′-bipiperidine] gave a melting point of 122 to 124 °C.

The compound `CC1CCN(C2CCN(S(=O)(=O)c3cccc(Br)c3)CC2)CC1` [compound 29, 1′-((3-Bromophenyl)sulfonyl)-4-methyl-1,4′-bipiperidine] showed a melting point of 125 to 126 °C.

On to `CC1CCN(C2CCN(S(=O)(=O)c3ccccc3Br)CC2)CC1` [compound 30, 1′-((2-Bromophenyl)sulfonyl)-4-methyl-1,4′-bipiperidine], for which the melting point was in the range of 82 to 84 °C.

Regarding `COc1ccc(S(=O)(=O)N2CCC(N3CCC(C)CC3)CC2)cc1OC` [compound 31, 1′-((3,4-Dimethoxyphenyl)sulfonyl)-4-methyl-1,4′-bipiperidine], the melting point fell in the range of 132 to 134 °C.

With `COc1ccc(OC)c(S(=O)(=O)N2CCC(N3CCC(C)CC3)CC2)c1` [compound 32, 1′-((2,5-Dimethoxyphenyl)sulfonyl)-4-methyl-1,4′-bipiperidine], the melting point was in the range of 75 to 78 °C.

Turning to `COc1ccc(Br)cc1S(=O)(=O)N1CCC(N2CCC(C)CC2)CC1` [compound 33, 1′-((5-Bromo-2-methoxyphenyl)sulfonyl)-4-methyl-1,4′-bipiperidine], the melting point fell in the range of 98 to 102 °C.

Regarding `COc1cc(C)ccc1S(=O)(=O)N1CCC(N2CCC(C)CC2)CC1` [compound 34, 1′-((2-Methoxy-4-methylphenyl)sulfonyl)-4-methyl-1,4′-bipiperidine], the melting point lay in the range of 95 to 98 °C.

As to `CC1CCN(C2CCN(S(=O)(=O)c3ccc([N+](=O)[O-])c(C(F)(F)F)c3)CC2)CC1` [compound 35, 4-Methyl-1′-((4-nitro-3-(trifluoromethyl)phenyl)sulfonyl)-1,4′-bipiperidine], the melting point was in the range of 175 to 178 °C.

In turn, `Cc1ccc(C#N)c(S(=O)(=O)N2CCC(N3CCC(C)CC3)CC2)c1` [compound 36, 4-Methyl-2-((4-methyl-[1,4′-bipiperidin]-1′-yl)sulfonyl)benzonitrile] showed a melting point of 118 to 121 °C.

As for `Cc1ccc(S(=O)(=O)N2CCC(N3CCC(C)CC3)CC2)cc1C` [compound 37, 1′-((3,4-Dimethylphenyl)sulfonyl)-4-methyl-1,4′-bipiperidine], the melting point was in the range of 87 to 89 °C.

Regarding `CCc1cc(Br)ccc1S(=O)(=O)N1CCC(N2CCC(C)CC2)CC1` [compound 38, 1′-((4-Bromo-2-ethylphenyl)sulfonyl)-4-methyl-1,4′-bipiperidine], the melting point was 87 to 91 °C.

For the compound `CC1CCN(C2CCN(S(=O)(=O)c3ccc(Cl)c(C(F)(F)F)c3)CC2)CC1` [compound 39, 1′-((4-Chloro-3-(trifluoromethyl)phenyl)sulfonyl)-4-methyl-1,4′-bipiperidine], the melting point lay in the range of 118 to 120 °C.

Turning to `CC1CCN(C2CCN(S(=O)(=O)c3ccc(Cl)c(Cl)c3)CC2)CC1` [compound 40, 1′-((3,4-Dichlorophenyl)sulfonyl)-4-methyl-1,4′-bipiperidine], the melting point lay in the range of 160 to 162 °C.

`CC1CCN(C2CCN(S(=O)(=O)c3ccc(Cl)cc3Cl)CC2)CC1` [compound 41, 1′-((2,4-Dichlorophenyl)sulfonyl)-4-methyl-1,4′-bipiperidine] yielded a melting point of 75 to 78 °C.

In turn, `CC1CCN(C2CCN(S(=O)(=O)c3cc(Cl)cc(Cl)c3)CC2)CC1` [compound 42, 1′-((3,5-Dichlorophenyl)sulfonyl)-4-methyl-1,4′-bipiperidine] returned a melting point of 128 to 131 °C.

In turn, `CC1CCN(C2CCN(S(=O)(=O)c3ccc(F)cc3F)CC2)CC1` [compound 44, 1′-((2,4-Difluorophenyl)sulfonyl)-4-methyl-1,4′-bipiperidine] returned a melting point of 165 to 168 °C.

Regarding `CC1CCN(C2CCN(S(=O)(=O)c3ccc(Br)cc3OC(F)(F)F)CC2)CC1` [compound 45, 1′-((4-Bromo-2-(trifluoromethoxy)phenyl)sulfonyl)-4-methyl-1,4′-bipiperidine], the melting point lay within 108 to 110 °C.

Regarding `Cc1cc(C)c(S(=O)(=O)N2CCC(N3CCC(C)CC3)CC2)c(C)c1` [compound 47, 1′-(Mesitylsulfonyl)-4-methyl-1,4′-bipiperidine], the melting point lay in the range of 62 to 65 °C.

On to `Cc1cc(Cl)cc(Cl)c1S(=O)(=O)N1CCC(N2CCC(C)CC2)CC1` [compound 49, 1′-((2,4-Dichloro-6-methylphenyl)sulfonyl)-4-methyl-1,4′-bipiperidine], for which the melting point is 89 to 91 °C.

Regarding `CC1CCN(C2CCN(S(=O)(=O)c3cc(F)c(Br)c(F)c3)CC2)CC1` [compound 50, 1′-((4-Bromo-3,5-difluorophenyl)sulfonyl)-4-methyl-1,4′-bipiperidine], the melting point is 161 to 163 °C.

With `CC1CCN(C2CCN(S(=O)(=O)c3ccccc3-c3ccccc3)CC2)CC1` [compound 51, 1′-([1,1′-Biphenyl]-2-ylsulfonyl)-4-methyl-1,4′-bipiperidine], the melting point fell in the range of 106 to 109 °C.

In turn, `CC1CCN(C2CCN(S(=O)(=O)c3ccc(-c4ccccc4)cc3)CC2)CC1` [compound 56, 1′-([1,1′-Biphenyl]-4-ylsulfonyl)-4-methyl-1,4′-bipiperidine] returned a melting point of 178 to 181 °C.

In turn, `CC1CCN(C2CCN(S(=O)(=O)c3ccc(-c4ccc(Cl)cc4)cc3)CC2)CC1` [compound 57, 1′-((4′-Cloro-[1,1′-biphenyl]-4-yl)sulfonyl)-4-methyl-1,4′-bipiperidine] yielded a melting point of 205 to 207 °C.

Regarding `COc1ccc(-c2ccc(S(=O)(=O)N3CCC(N4CCC(C)CC4)CC3)cc2)cc1` [compound 58, 1′-((4′-Methoxy-[1,1′-biphenyl]-4-yl)sulfonyl)-4-methyl-1,4′-bipiperidine], the melting point is 195 to 198 °C.

On to `CC1CCN(C2CCN(S(=O)(=O)c3cccc(-c4ccc(Cl)cc4)c3)CC2)CC1` [compound 62, 1′-((4′-Chloro-[1,1′-biphenyl]-3-yl)sulfonyl)-4-methyl-1,4′-bipiperidine], for which the melting point was in the range of 124 to 126 °C.

Regarding `COc1ccc(-c2cccc(S(=O)(=O)N3CCC(N4CCC(C)CC4)CC3)c2)cc1` [compound 63, 1′-((4′-Methoxy-[1,1′-biphenyl]-3-yl)sulfonyl)-4-methyl-1,4′-bipiperidine], the melting point fell in the range of 107 to 109 °C.

`Cc1ccc(-c2cccc(S(=O)(=O)N3CCC(N4CCC(C)CC4)CC3)c2)cc1` [compound 64, 4-Methyl-1′-((4′-methyl-[1,1′-biphenyl]-3-yl)sulfonyl)-1,4′-bipiperidine] showed a melting point of 103 to 105 °C.

Broadly, the melting point is the temperature, or range, at which the solid turns liquid.

Source of the values: patent publication US20220024891A1 (The Board of Regents of the University of Texas System, priority 2018, published 2022).
